# Reference: article PMC10716921 (Frontiers in Pharmacology, 2023)
# Where two headings read alike, the source gives them in different places.
# How the values were obtained:
# [1] = system: human peripheral blood mononuclear cells (PBMCs); test: Immunological analysis: activation of immune cells by flow cytometry; type: cell-based
# Experimental: The analysis of the effect on immune cells in vitro was performed with human peripheral blood mononuclear cells (PBMCs) isolated from “buffy coats” using a Ficoll density gradient (Histopaque, Sigma-Aldrich Co.). The procedure was approved by the Independent Bioethics Commission for Research of the Medical University of Gdańsk (NKBBN/387/2014). 100 ul of 1% RADA-PDGF2 was placed in a 24-well plate. Then, culture inserts with a pore diameter of 0.4 μm were placed in the wells, and cells were seeded into them in the amount of 0.5 million cells/0.5 mL RPMI 1640 (P/S, 10% FBS)/well. This was then supplemented with medium alone to a final volume of 1 mL/well. Cells were incubated in standard conditions for 24 h. The negative control was unstimulated cells, grown in the insert, in a well without gels. RADA16-I constituted an additional control. After the incubation, cells were harvested, washed in PBS, counted, and prepared for cytometric analysis. 100,000 cells/100 µL were stained with fluorochrome-conjugated monoclonal antibodies (anti-CD3, anti-CD4, anti-CD8, anti-CD16, anti-CD56, anti-CD25, anti-CD69, anti-CD71, anti-HLA-DR, anti-CD11c, anti-CD80, and anti-CD83). Following 30 min of incubation at room temperature (RT) in the dark, the cells were analyzed using a flow cytometer (LSRFortessa, BD).
# [2] = previous stability studies; ref Dzierżyńska et al., 2023; cited from earlier work
# [3] = type: physicochemical
# Experimental: Blood samples provided by healthy volunteers were processed with lithium/heparin tubes to eliminate clots by centrifugation. Plasma aliquots were mixed with RADA-PDGF2 peptide for 24 h at 37°C, using a plasma to peptide volume ratio of (4:1% v/v), to obtain final concentration 2.69 µM of RADA-PDGF2 peptide.). Samples were collected at six time points (0, 1, 2, 3, 6, and 24 h) to assess water and plasma stability. The collected samples were then prepared and analyzed according to the protocol described earlier ([Dzierżyńska et al., 2023]).
# [4] = system: dermal fibroblast, 46BR.1N fibroblast, and HaCaT keratinocytes; type: cell-based, human
# Experimental: Cell viability of dermal fibroblast, 46BR.1N fibroblast, and HaCaT keratinocytes was analyzed after 4 days of cell culture on RADA-PDGF2 hydrogel. RADA-PDGF2 was dissolved in water at a concentration of 1% w/v and placed in the inserts (0.4 µm) located in a 24-well plate. The whole was incubated for at least 1 hour at 37°C to allow gelation. Then, twice the volume of DMEM HG medium was added to the gel and left overnight in the incubator. The cells were trypsinized, centrifuge and then seeded on a gel at 50,000 per insert in DMEM HG medium with 2% FBS and 1% P/S. The medium was changed to DMEM HG with 2% FBS and 1% P/S after 2 days of incubation. After 4 days of incubation to assess viability, cells were stained with Calcein-AM (c = 8 µM) and propidium iodide (2 μg/mL) for 30 min and then analyzed by confocal microscopy with the use of Nikon Eclipse Ti-e Confocal Microscope.
# [5] = system: human neutrophil elastase; test: human neutrophil elastase enzyme (EC No. 3.4.21.37, Sigma Aldrich, USA) in 25 mM Tris HCl buffer, pH 7.5; settings: 37°C, up to 30 min
# [6] = in vivo, iv; cited from earlier work
# Description: (§1) Platelet-derived growth factor BB (PDGF-BB), one of the first growth factors released into the wound, plays a crucial role in the wound healing process. It is responsible for the formation of granulation tissue, production of extracellular matrix (ECM), takes part in the recruitment of mesenchymal stromal cells (MSCs), and stimulates the proliferation of fibroblasts ([White et al., 2021]). In 1997, the FDA approved human recombinant PDGF-BB in sodium carboxy-methylcellulose (NaCMC) hydrogel (Regranex®) for the treatment of DFUs ([Reyes-Martínez et al., 2019]). However, because of the high cos ...
# [7] = system: human skin cells, especially keratinocytes; settings: ref Deptuła et al., 2020; cited from earlier work
# Description: as §1
# [8] = system: lymphocytes and basophils; settings: cited from earlier work
# Description: as §1
# mice = settings: applied topically in 18% P407 hydrogel, mice model; ref Deptuła et al., 2020; cited from earlier work
# Description: as §1
# skin cells = settings: cited from earlier work
# Description: Platelet-derived growth factor BB (PDGF-BB), one of the first growth factors released into the wound, plays a crucial role in the wound healing process. It is responsible for the formation of granulation tissue, production of extracellular matrix (ECM), takes part in the recruitment of mesenchymal stromal cells (MSCs), and stimulates the proliferation of fibroblasts ([White et al., 2021]). In 1997, the FDA approved human recombinant PDGF-BB in sodium carboxy-methylcellulose (NaCMC) hydrogel (Regranex®) for the treatment of DFUs ([Reyes-Martínez et al., 2019]). However, because of the high cos ... || During the development of new biomaterials, it is crucial to analyze not only their physicochemical properties and activity but also their biocompatibility and potential risk to human cells and tissues ([Schmalz and […], 2017]). That is why we decided to evaluate the cytotoxicity of RADA-PDGF2 and its effect on immune cells. Based on our experience and literature data, we know that peptides can be cytotoxic to human cells ([Greco et al., 2020]). […] However, RADA- ...
compound,measurement,setting,value
"CC(=O)N[C@@H](CCCNC(=N)N)C(=O)N[C@@H](C)C(=O)N[C@@H](CC(=O)O)C(=O)N[C@@H](C)C(=O)N[C@@H](CCCNC(=N)N)C(=O)N[C@@H](C)C(=O)N[C@@H](CC(=O)O)C(=O)N[C@@H](C)C(=O)N[C@@H](CCCNC(=N)N)C(=O)N[C@@H](C)C(=O)N[C@@H](CC(=O)O)C(=O)N[C@@H](C)C(=O)N[C@@H](CCCNC(=N)N)C(=O)N[C@@H](C)C(=O)N[C@@H](CC(=O)O)C(=O)N[C@@H](C)C(N)=O [RADA16-I, reference compound]",overall immunological assessment,"[1]; PBMCs, 24 h, due to the low values of the changes",safe in an immunological context
same,presence of peptide in plasma,[2],did not show prolonged presence of peptide in plasma
CC[C@H](C)[C@H](NC(=O)[C@H](CC(C)C)NC(=O)[C@H](CCCNC(=N)N)NC(=O)CNC(=O)CNC(=O)CNC(=O)[C@@H](NC(=O)[C@@H]1CCCN1C(=O)[C@H](C)NC(=O)[C@H](C)NC(=O)CNC(=O)CNC(=O)CNC(=O)[C@H](C)NC(=O)[C@H](CC(=O)O)NC(=O)[C@H](C)NC(=O)[C@H](CCCNC(=N)N)NC(=O)[C@H](C)NC(=O)[C@H](CC(=O)O)NC(=O)[C@H](C)NC(=O)[C@H](CCCNC(=N)N)NC(=O)[C@H](C)NC(=O)[C@H](CC(=O)O)NC(=O)[C@H](C)NC(=O)[C@H](CCCNC(=N)N)NC(=O)[C@H](C)NC(=O)[C@H](CC(=O)O)NC(=O)[C@H](C)NC(=O)[C@H](CCCNC(=N)N)NC(C)=O)C(C)C)C(=O)N[C@@H](CC(=O)O)C(=O)N[C@@H](CCCNC(=N)N)C(=O)N[C@H](C(=O)N[C@@H](CC(N)=O)C(=O)N[C@@H](C)C(=O)N[C@@H](CC(N)=O)C(=O)N[C@@H](Cc1ccccc1)C(=O)N[C@@H](CC(C)C)C(N)=O)[C@@H](C)O [RADA-PDGF2],time over which the peptide exhibited chemical stability in aqueous solution,[3],24 h
same,skin cell viability on hydrogel,[4],remained viable
same,CD11c+CD83+ active DCs population compared to untreated control,[1],statistically significant increase
same,NK cells: expression of CD25,[1],slight increase
same,NK cells: expression of CD71,[1],reduction
same,NK cells: statistical significance of change in activation markers,[1],no statistical significance was noted
same,Th cells: expression of activation markers versus unstimulated cells,[1],any statistically significant differences between unstimulated cells and cells stimulated with RADA-PDGF2 were not observed
same,cytotoxic lymphocytes (CTL): expression of CD69 marker,[1],increased expression
same,overall immunological assessment,[1],safe in an immunological context
Ac-(RADA)4GGGAAPVGGGRLIDRTNANFL-NH2,cleaved bond,[5],"V23-G24, major"
PDGF-BB: Platelet-derived growth factor BB,half-life,[6],a few minutes
"RLIDRTNANFL [PDGF2, peptide … derived from PDGF-BB]",pro-proliferative properties,[7],strong pro-proliferative properties
same,immunogenicity in vitro,[8],negligible lymphocyte and basophil activation
same,effect on wound healing,mice,accelerates wound healing
same,cytotoxicity,skin cells,minimal cytotoxicity
